Assay in all cases: growth of human tumour cells (NCI), 48 h
The subject of experiment [1] is SK-MEL-2 melanoma.
In experiment [2] the test system is OVCAR-3 ovarian.
The subject of experiment [3] is SR leukemia.
The subject of experiment [4] is LOX IMVI melanoma.
Experiment [5] deals with RXF 393 renal.
Experiment [6] deals with MCF7 breast.
Experiment [7] concerns ACHN renal.
Experiment [8] has as its system HS 578T breast.
For experiment [9], the system named is TK-10 renal.
Experiment [10] relates to CCRF-CEM leukemia.
Experiment [11] relates to MDA-N.
The test system of experiment [12] is MDA-MB-231 breast.
The test system of experiment [13] is A498 renal.
Experiment [14] relates to DU-145 prostate.
In experiment [15] the test system is NCI-H522 lung.
Experiment [16] relates to HCT-15 colon.
Experiment [17] relates to 786-0 renal.
Experiment [18] concerns T-47D breast.
The test system of experiment [19] is HT29 colon.
For experiment [20], the system named is UACC-257 melanoma.

Structures are written as SMILES.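 Each compound was tested at five concentrations against cells in 96-well plates for 48 hours. TGI marks complete inhibition of growth.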

As for `Cc1ncc([N+](=O)[O-])n1CCNCCCCn1ccnc1[N+](=O)[O-]`, the TGI in experiment [1], in experiment [2], in [3], in experiment [4], in experiment [5] and in [6] was > 100 µM each time. In addition, the TGI in [7], in [8], in [9], in experiment [10], in experiment [11] and in experiment [12] was > 100 µM in each case. Moreover, the TGI in experiment [13], in experiment [14], in experiment [15], in [16], in [17] and in [18] was > 100 µM in each case. In addition, the TGI in experiment [19] and in experiment [20] was > 100 µM each time.

For the compound `O=C(N(O)c1ccccc1Cl)C(O)(c1ccccc1)c1ccccc1`, the TGI in [1] is > 100 µM; in [2] it was > 100 µM; in experiment [3] it was 49.9 µM; in [4], > 100 µM; in experiment [5] it was > 100 µM; in [6], > 100 µM. Further, the TGI was > 100 µM in experiment [7]; > 100 µM in [8]; > 100 µM in experiment [9]; 41 µM in [10]; > 100 µM in experiment [11]; > 100 µM in experiment [12]. For the same compound, the TGI in experiment [13], in experiment [14], in experiment [15], in experiment [16], in experiment [17] and in [18] was > 100 µM in each case. The TGI in [19] and in experiment [20] was > 100 µM in each case.

Turning to `O=C(O)CCSC(CC1(c2ccc(Cl)cc2)NC(=O)CCS1)c1ccccc1` (stereo not given), the TGI in experiment [1] is 38.7 µM; in experiment [2], 41.5 µM; in experiment [3] it was > 100 µM; in experiment [4] it was > 100 µM; in experiment [5] it was > 54.8 µM; in experiment [6], > 55.3 µM. Moreover, the TGI is > 59.4 µM in experiment [7]; 33.4 µM in [8]; 36 µM in experiment [9]; 24.8 µM in experiment [10]; 31.8 µM in experiment [11]; 46.6 µM in [12]. Moreover, the TGI in experiment [13] was 42.9 µM; in experiment [14], > 53.8 µM; in [15], 41.7 µM; in experiment [16], 32.1 µM; in [17], 20.9 µM; in experiment [18] it was > 60 µM. The values for the TGI in experiment [19] and in experiment [20] were 38.1 µM and 49.1 µM, respectively.

Turning to `COc1cccc(C2c3cc4c(cc3OC(C)(N3CCCC3)C2C)OCO4)c1` (stereo not given), the TGI in experiment [1] is 11.2 µM; in experiment [2], 22 µM; in [3] it was > 100 µM; in [4] it was 25.1 µM; in [5] it was 51.9 µM; in experiment [6], 45.7 µM. Also, the TGI in experiment [7] is 82.3 µM; in experiment [8], 19.9 µM; in [9] it was 37.2 µM; in experiment [10], > 100 µM; in [11], 4.02 µM; in experiment [12], 27.4 µM. Also, the TGI was 85.3 µM in [13]; 49.6 µM in experiment [14]; 5.7 µM in [15]; 44.2 µM in experiment [16]; > 100 µM in [17]; 64 µM in experiment [18]. Besides, the TGI in [19] worked out at 15 µM; in experiment [20], 70 µM.

Take `O=C1NC(N/N=C\C(O)C(O)C(O)C(O)CO)=N/C1=C/c1ccc(Cl)cc1` (stereo not given): the TGI in [1], in [2], in experiment [3], in experiment [4], in experiment [5] and in experiment [6] was > 100 µM each time. Besides, the TGI in experiment [7], in [8], in [9], in experiment [10], in [11] and in experiment [12] was > 100 µM in each case. Besides, the TGI in experiment [13], in experiment [14], in experiment [15], in [16], in [17] and in [18] was > 100 µM in each case. The TGI in experiment [19] and in [20] was > 100 µM each time.

`COC1=C(Br)[C@H](O)[C@@]2(C=C1Br)CC(C(=O)NCCCOc1c(Br)cc(C(O)CNC(C)=O)cc1Br)=NO2` (stereo not given in full): the TGI in [1] was > 10 µM; in [2], > 10 µM; in experiment [3], 1.77 µM; in experiment [4], > 10 µM; in experiment [5], > 10 µM; in experiment [6], > 10 µM. In addition, the TGI in [7] was > 10 µM; in [8], > 10 µM; in experiment [9], > 10 µM; in experiment [10], > 10 µM; in experiment [11], 4.4 µM; in experiment [12], > 10 µM. Also, the TGI in [13], in experiment [14], in experiment [15], in [16], in experiment [17] and in [18] was > 10 µM in each case. Also, the TGI in experiment [19] and in experiment [20] was > 10 µM throughout.

As to `COc1ccc(/C=C2\c3cc(OC)c(OC)cc3CCN2C(=O)c2ccccc2)cc1OC`, the TGI in [1], in experiment [2], in experiment [3], in experiment [4], in experiment [5] and in [6] was > 100 µM each time. The TGI was > 100 µM in experiment [7]; > 100 µM in [8]; > 100 µM in experiment [9]; 98.4 µM in [10]; 65.2 µM in experiment [11]; > 100 µM in experiment [12]. Also, the TGI in [13] was > 100 µM; in experiment [14], > 100 µM; in [15], 45.4 µM; in experiment [16], > 100 µM; in [17] it was > 100 µM; in experiment [18], 86.8 µM. Further, the TGI in experiment [19] and in [20] was > 100 µM in each case.
